Test results published in EP4684787A1, “PHARMACEUTICAL COMPOSITION CONTAINING DIPEPTIDYL PEPTIDASE SMALL MOLECULE INHIBITOR” (Haisco Pharmaceuticals Pte. Ltd., priority 2023, dated 2024).

Assays:
[1] = Pharmacokinetic Experiment in Rats; format: in vivo, SD rats; conditions: Intravenous (1 mg/kg), rat plasma
Method: 1.1 Test animals: Male SD rats, ca. 220 g, 6-8 weeks old, 6 rats/compound. The rats were purchased from […] EXPERIMENTAL ANIMALS CO., LTD. 1.2 Test design: On the day of the test, 6 SD rats were randomly divided into groups according to body weight. The rats were fasted but had access to water for 12-14 hours one day before administration. The rats were fed 4 hours after administration. Table 9. Information for administration Vehicle for intravenous administration: 5% DMA + 5% Solutol + 90% Saline; Vehicle for oral gavage: 0.5% MC; control compound […] is namely Compound 2 in patent WO2015110826A1, and was prepared according to the method described in the patent. Rats were anesthetized with isoflurane before and after administration. Blood (0.1 ml) was collected by orbital blood collection and placed in EDTAK2 centrifuge tube. The blood sample was centrifuged at 5000 rpm at 4°C for 10 min. The plasma was collected. […] All samples were stored at -80° C till analysis and detection. Table 10. Pharmacokinetic parameters of test compounds in rat plasma

[2] = test system: LPS-induced acute lung injury; conditions: background statement, no data; cited from earlier work
[3] = test system: NE enzyme; conditions: background statement, no data; cited from earlier work

| CL [1] | Vdss [1] | SMILES | LPS-induced acute lung injury in mice [2] | NE enzyme activity in rat bone marrow [3] |
| --- | --- | --- | --- | --- |
| 1.66 mL/min/kg | 0.753 L/kg | Cn1c(=O)oc2ccc(-c3ccc(C[C@@H](C#N)NC(=O)[C@@H]4CNCCCO4)c(F)c3)cc21 [Compound A, (S)-N-((S)-1-cyano-2-(2-fluoro-4-(3-methyl-2-oxo-2,3-dihydrobenzo[d]oxazol-5-yl)phenyl)ethyl)-1,4-oxazepane-2-carboxamide] | mitigate | significantly inhibit |
| 2.08 mL/min/kg | 0.738 L/kg | Cn1c(=O)oc2ccc(-c3ccc(C[C@@H](C#N)NC(=O)[C@@H]4CNCCCO4)cc3)cc21 [INS 1007, reference compound] | – | – |
